# Laboratory results taken from publication PMC8575457, “Molecular reconstruction of recurrent evolutionary switching in olfactory receptor specificity” (eLife, 2021).
# Where a chain is given by its changes, count along the chain named.
# Key:
# Assay in all cases: single sensillum extracellular recording, Ir decoder neuron
# Conditions in all cases: 1% v/v odor in water, 10 ul, 500 ms pulse; agonist
# [1] = biological target: T1, DmelIr75b^DsecS1 (Drosophila melanogaster, UniProt A0A1S6EMU4, I210K/M217L/K220Q/N259S/I277M/F289L/Q291K/P473S/G492S/A520T/T523S, form not given); type: cell-based
# T1 construct: gene IR75b; UAS transgene in Ir decoder neuron; with Ionotropic receptor 8a (D. melanogaster, endogenous)
# T1 sequence (A0A1S6EMU4 1-609 I210K/M217L/K220Q/N259S/I277M/F289L/Q291K/P473S/G492S/A520T/T523S): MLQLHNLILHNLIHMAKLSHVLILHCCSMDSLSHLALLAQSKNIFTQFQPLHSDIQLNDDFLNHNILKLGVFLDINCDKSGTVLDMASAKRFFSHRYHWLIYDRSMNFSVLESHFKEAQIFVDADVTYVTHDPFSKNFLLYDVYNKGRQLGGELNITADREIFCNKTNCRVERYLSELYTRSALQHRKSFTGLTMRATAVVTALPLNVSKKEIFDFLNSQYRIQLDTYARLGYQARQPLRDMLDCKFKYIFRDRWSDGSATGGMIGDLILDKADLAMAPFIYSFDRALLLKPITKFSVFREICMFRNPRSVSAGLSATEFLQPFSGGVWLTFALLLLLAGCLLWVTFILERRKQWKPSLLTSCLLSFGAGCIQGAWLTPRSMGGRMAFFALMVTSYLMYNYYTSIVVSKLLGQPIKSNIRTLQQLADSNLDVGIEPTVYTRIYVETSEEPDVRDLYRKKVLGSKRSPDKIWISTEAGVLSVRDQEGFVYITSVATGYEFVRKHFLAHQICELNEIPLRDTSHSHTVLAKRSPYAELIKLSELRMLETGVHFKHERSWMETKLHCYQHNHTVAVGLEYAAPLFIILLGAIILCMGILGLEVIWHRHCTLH
# T1 sequence (Q9W365 18-936 partner): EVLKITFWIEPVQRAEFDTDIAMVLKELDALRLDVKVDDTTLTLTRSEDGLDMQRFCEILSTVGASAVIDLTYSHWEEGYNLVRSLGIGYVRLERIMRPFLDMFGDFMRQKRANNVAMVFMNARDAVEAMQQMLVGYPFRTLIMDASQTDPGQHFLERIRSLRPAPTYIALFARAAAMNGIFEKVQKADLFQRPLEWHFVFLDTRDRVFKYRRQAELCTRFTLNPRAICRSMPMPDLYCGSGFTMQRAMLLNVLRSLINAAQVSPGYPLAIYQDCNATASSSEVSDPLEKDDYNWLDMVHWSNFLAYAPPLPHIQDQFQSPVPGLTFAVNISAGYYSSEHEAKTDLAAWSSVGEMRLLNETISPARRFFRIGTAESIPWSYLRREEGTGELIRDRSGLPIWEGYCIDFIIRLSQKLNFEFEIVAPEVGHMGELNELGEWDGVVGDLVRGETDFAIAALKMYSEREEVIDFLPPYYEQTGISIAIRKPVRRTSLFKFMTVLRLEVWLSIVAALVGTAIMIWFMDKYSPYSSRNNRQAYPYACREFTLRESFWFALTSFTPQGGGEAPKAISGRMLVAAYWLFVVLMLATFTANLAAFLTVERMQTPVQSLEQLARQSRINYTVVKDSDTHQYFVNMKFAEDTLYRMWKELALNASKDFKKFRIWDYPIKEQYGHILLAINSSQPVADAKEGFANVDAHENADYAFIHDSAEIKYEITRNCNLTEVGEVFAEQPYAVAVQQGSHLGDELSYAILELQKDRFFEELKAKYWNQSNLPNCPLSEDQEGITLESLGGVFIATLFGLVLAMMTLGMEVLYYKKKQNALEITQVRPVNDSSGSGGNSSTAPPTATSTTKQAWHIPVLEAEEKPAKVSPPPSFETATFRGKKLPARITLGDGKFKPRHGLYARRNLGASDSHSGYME
# [2] = biological target: T2, DmelIr75b (Drosophila melanogaster, UniProt A0A1S6EMU4, T523S); type: cell-based
# T2 construct: gene IR75b; cDNA, UAS transgene expressed in D. melanogaster Ir decoder neuron with endogenous Ir8a; predicted heterotetramer; with Ionotropic receptor 8a (D. melanogaster, endogenous)
# T2 sequence (A0A1S6EMU4 1-609 T523S): T1 sequence (A0A1S6EMU4 1-609 I210K/M217L/K220Q/N259S/I277M/F289L/Q291K/P473S/G492S/A520T/T523S) with K210I, L217M, Q220K, S259N, M277I, L289F, K291Q, S473P, S492G, T520A
# T2 sequence (Q9W365 18-936 partner): T1 sequence (Q9W365 18-936 partner)
# [3] = biological target: T3, DmelIr75b^DsecS1 (Drosophila melanogaster, UniProt A0A1S6EMU4, I210K/M217L/K220Q/N259S/I277M/F289L/Q291K, form not given); type: cell-based
# T3 construct: gene IR75b; UAS transgene in Ir decoder neuron; with Ionotropic receptor 8a (D. melanogaster, endogenous)
# T3 sequence (A0A1S6EMU4 1-609 I210K/M217L/K220Q/N259S/I277M/F289L/Q291K): T1 sequence (A0A1S6EMU4 1-609 I210K/M217L/K220Q/N259S/I277M/F289L/Q291K/P473S/G492S/A520T/T523S) with S473P, S492G, T520A, S523T
# T3 sequence (Q9W365 18-936 partner): T1 sequence (Q9W365 18-936 partner)
# [4] = biological target: T4, DsecIr75b (Drosophila sechellia, UniProt A0A1S6EMU3); type: cell-based, Drosophila melanogaster
# T4 construct: gene IR75b; cDNA, UAS transgene expressed in D. melanogaster Ir decoder neuron with D. melanogaster Ir8a; predicted heterotetramer; with Ionotropic receptor 8a (D. melanogaster, endogenous)
# T4 sequence (A0A1S6EMU3 1-609): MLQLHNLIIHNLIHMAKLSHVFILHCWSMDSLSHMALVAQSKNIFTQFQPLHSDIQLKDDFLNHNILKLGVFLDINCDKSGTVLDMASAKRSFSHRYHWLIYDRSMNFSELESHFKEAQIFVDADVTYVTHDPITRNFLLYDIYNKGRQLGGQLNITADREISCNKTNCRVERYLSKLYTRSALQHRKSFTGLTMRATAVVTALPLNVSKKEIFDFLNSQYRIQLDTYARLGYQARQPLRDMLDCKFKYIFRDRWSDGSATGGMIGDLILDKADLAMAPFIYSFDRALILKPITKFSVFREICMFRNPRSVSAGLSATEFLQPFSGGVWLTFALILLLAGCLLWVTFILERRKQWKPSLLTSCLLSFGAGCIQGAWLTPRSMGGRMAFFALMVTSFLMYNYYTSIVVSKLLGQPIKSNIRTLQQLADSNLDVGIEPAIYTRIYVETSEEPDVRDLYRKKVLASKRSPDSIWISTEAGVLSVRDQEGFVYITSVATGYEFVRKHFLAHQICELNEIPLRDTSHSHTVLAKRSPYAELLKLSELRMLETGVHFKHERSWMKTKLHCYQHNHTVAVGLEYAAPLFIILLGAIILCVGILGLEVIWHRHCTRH
# T4 sequence (Q9W365 18-936 partner): T1 sequence (Q9W365 18-936 partner)
compound,measurement,setting,value
"CCCCCC(=O)O [C6, hexanoic acid]",solvent-corrected response (spikes/s),[1],"DmelIr75b^DsecS1,4mutS2 still has a significantly increased sensitivity to C6 when compared with DmelIr75b"
same,solvent-corrected response (spikes/s),[2],mutation of the hotspot in DmelIr75b is sufficient to confer novel responses to C5 and C6
same,solvent-corrected response (spikes/s),[3],"DmelIr75b^DsecS1, with significantly increased responses to C6"
same,solvent-corrected response (spikes/s),[4],its response to C6 is significantly smaller than that of DsecIr75b
